Target: T1, TREK-2 Y315A (Homo sapiens, UniProt P57789, Y310A)
T1 construct: expressed in transfected cells; host or cells: HEK293 cells, transient transfection with pcDNA3
T1 sequence (P57789 1-543 isoform P57789-4 Y315A): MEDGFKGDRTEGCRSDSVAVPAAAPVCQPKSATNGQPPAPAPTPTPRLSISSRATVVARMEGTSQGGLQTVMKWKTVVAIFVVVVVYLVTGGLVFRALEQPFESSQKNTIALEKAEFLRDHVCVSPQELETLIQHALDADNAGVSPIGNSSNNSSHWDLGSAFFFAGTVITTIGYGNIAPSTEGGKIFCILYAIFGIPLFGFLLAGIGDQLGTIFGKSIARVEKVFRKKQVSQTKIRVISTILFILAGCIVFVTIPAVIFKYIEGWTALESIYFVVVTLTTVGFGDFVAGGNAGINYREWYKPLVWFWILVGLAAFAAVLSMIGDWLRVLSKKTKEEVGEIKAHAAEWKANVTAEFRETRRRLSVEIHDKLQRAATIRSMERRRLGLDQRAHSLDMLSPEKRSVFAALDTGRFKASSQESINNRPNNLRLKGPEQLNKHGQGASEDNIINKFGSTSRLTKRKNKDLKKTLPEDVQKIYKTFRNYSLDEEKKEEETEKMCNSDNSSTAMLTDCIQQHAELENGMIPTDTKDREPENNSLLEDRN
Assay: Single-channel recordings of TREK-2 Y315A mutant in excised patches from HEK293 cells
Type: cell-based
Conditions: 10 µM NFx; before desensitization (effect dramatically reduced within ∼30 s)
Description: HEK293 cells were cultured in DMEM (Sigma) containing 10% FBS (Life Technologies), 3 mM glucose, and 2 mM glutamine at 37°C in a humidified atmosphere of 5% CO2/[…] at 37°C. Cells were transiently transfected with 0.2 µg channel pcDNA3 per dish using FuGENE 6 according to the manufacturer’s instructions. Cells were used 1–2 d after transfection.
For currents recorded in Xenopus laevis oocytes, giant-patch electrodes were pulled from thick-walled borosilicate glass and polished to give pipette resistances of ∼0.3–0.5 MΩ when filled with patch solution. […] Patches were perfused via a gravity-flow perfusion system and a HEKA EPC 10 USB single computer–controlled amplifier was used and currents recorded using a Patchmaster v2 × 90.5 (HEKA Electronics), filtered at 1 kHz, and sampled at 10 kHz. For currents recorded in HEK293 cells, patch electrodes were pulled from thick-walled borosilicate glass and polished to give pipette resistances of ∼3–5 MΩ when filled with patch solution. The currents were recorded from excised patches with both intracellular and extracellular solution containing 200 mM KCl and 10 mM HEPES (pH 6.0 with KOH). […] Data were acquired with pClamp and recorded using an Axopatch 200B (Molecular Devices), filtered at 5 kHz, and sampled at 200 kHz. Single-channel currents were analyzed in an identical manner to those obtained from bilayers (see above). […]

**Q.** How did the “initial reduction of channel Po” value turn out when `NCCC(Oc1ccc(C(F)(F)F)cc1)c1ccccc1` (stereo not shown) [NFx, norfluoxetine] was run?
**A.** Its value is greater than 90%.

— PMC8155809 (The Journal of General Physiology, 2021)
